# According to US7544814B2, “[3.2.0] Heterocyclic compounds and methods of using the same” (Nereus Pharmaceuticals, Inc., priority 2004, dated 2009):
# “And” between values parts separate entries of the source, which are not always exact repeats. Identical values can stand only once. Like-named read-outs stand apart in the source and are kept apart here.
# Legend:
# [1] = test system: LeTx-mediated cytotoxicity of RAW 264.7 cells; settings: read-out: EC50 for inhibition of RAW 264.7 cell cytotoxicity mediated by anthrax lethal toxin; 45 minute preincubation, 1 μg/ml LF and PA, six hours; maximum concentration 330 nM
# [2] = test system: OVCAR-3; experiment: Cell growth inhibition (resazurin), OVCAR-3; settings: from EC50 values
# [3] = test system: NF-κB; experiment: NF-κB-mediated luciferase reporter gene assay, HEK293 NF-κB/Luc cells, TNF-α stimulation; format: cell-based, human
# Method in brief: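 Cells seeded at 1.5×10^4/well in phenol-red free DMEM, pretreated 1 h with 8-point half-log compound dilutions (DMSO stocks), then stimulated with TNF-α (10 μl of 50 ng/ml solution) for 6 h. Luciferase read as RLU after 10 min with Steady Lite reagent at room temperature.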
# [4] = test system: PC-3; experiment: Cell growth inhibition (resazurin), PC-3; format: cell-based, human
# [5] = test system: U266; experiment: Cell growth inhibition (resazurin), U266; settings: for EC50: 48 hours drug exposure
# [6] = test system: RPMI 8226; experiment: Cell growth inhibition (resazurin), RPMI 8226; settings: for EC50: 48 hours drug exposure
# [7] = test system: MDA-MB-231; experiment: Cell growth inhibition (resazurin), MDA-MB-231
# [8] = test system: HT-29; experiment: Cell growth inhibition (resazurin), HT-29
# [9] = test system: NCI-H292; experiment: Cell growth inhibition (resazurin), NCI-H292
# [10] = target: T1, chymotrypsin-like activity of purified rabbit muscle 20S proteasome (Oryctolagus cuniculus, UniProt G1T4Q9); experiment: In vitro inhibition of 20S proteasome chymotrypsin-like activity (suc-LLVY-AMC); settings: EC50 Chymotrypsin-like, Table 6, values in nM
# T1 sequence (G1T4Q9 1-263): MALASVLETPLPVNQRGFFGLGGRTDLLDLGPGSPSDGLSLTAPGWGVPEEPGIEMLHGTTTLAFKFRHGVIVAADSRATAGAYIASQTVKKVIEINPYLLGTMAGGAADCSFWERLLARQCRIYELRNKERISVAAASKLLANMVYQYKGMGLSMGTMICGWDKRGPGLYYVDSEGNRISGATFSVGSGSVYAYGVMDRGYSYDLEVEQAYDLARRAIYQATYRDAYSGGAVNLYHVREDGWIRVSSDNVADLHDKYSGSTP
# [11] = target: T2, trypsin-like activity of purified rabbit muscle 20S proteasome (Oryctolagus cuniculus, UniProt G1SWK8); experiment: In vitro inhibition of 20S proteasome trypsin-like activity (Boc-LRR-AMC); settings: under the conditions tested
# T2 sequence (G1SWK8 1-271): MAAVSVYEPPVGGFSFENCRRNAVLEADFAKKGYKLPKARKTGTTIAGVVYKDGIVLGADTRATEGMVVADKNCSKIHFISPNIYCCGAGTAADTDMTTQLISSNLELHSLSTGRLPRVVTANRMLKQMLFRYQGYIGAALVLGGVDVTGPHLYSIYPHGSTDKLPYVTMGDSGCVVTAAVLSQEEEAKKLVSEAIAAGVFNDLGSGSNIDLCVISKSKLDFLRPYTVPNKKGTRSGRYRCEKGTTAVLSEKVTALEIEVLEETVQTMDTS
# [12] = target: T3, caspase-like activity of purified rabbit muscle 20S proteasome (Oryctolagus cuniculus, UniProt A0A5F9DQW2); experiment: In vitro inhibition of 20S proteasome caspase-like activity (Z-LLE-AMC)
# T3 sequence (A0A5F9DQW2 1-212): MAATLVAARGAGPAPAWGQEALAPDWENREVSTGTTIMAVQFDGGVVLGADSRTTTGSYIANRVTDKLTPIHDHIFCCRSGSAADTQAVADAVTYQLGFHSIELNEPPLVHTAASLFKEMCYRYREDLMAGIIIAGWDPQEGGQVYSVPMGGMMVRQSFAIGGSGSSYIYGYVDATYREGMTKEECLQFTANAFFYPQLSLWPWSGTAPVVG
# [13] = test system: B16-F10; experiment: Cell growth inhibition (resazurin), B16-F10
# [14] = test system: RPMI 8226; experiment: cells; settings: for EC50: Homo sapiens
# Experimental: RPMI 8226 (CCL-155), HT-29 (HTB-38), and B16-F10 (CRL-6475) cells were purchased from ATCC. RPMI 8226 cells were maintained in RPMI 1640 media supplemented with 10% (v/v) FBS, 2 mM L-glutamine, 1 mM sodium pyruvate and Penicillin/Streptomycin at 100 IU/ml and 100 μg/ml, respectively. HT-29 cells were maintained in McCoys 5A supplemented with 10% (v/v) FBS, 2 mM L-glutamine, 1 mM sodium pyruvate, 1% (v/v) non-essential amino acids, 10 mM HEPES and Penicillin/Streptomycin at 100 IU/ml and 100 μg/ml, respectively. B16-F10 cells were maintained in DMEM supplemented with 10% (v/v) FBS, 2 mM L-glutamine, 10 mM HEPES and Penicillin/Streptomycin at 100 IU/ml and 100 μg/ml, respectively.
# RPMI 8226 cells were seeded at 2×10^4 cells/well in 90 μl RPMI media containing 10% (v/v) FBS or 1% (v/v) FBS into 96 well black-walled, clear-bottom tissue culture plates. […] Formulae II-16, II-17 and Formula II-18 were serially diluted in media containing 1% or 10% FBS and added in triplicate to the test wells. […] The final concentration of Formula II-18 ranged from 2 μM to 630 pM.
# [15] = test system: HT-29; experiment: Growth inhibition of HT-29 in media containing 1% or 10% FBS; format: cell-based, human; settings: for EC50: Homo sapiens, HT-29, read-out: HT-29, EC50 (nM) mean ± SD
# [16] = test system: B16-F10; experiment: Growth inhibition of B16-F10 in media containing 1% or 10% FBS; format: cell-based, mouse
# [17] = target: T4, chymotrypsin-like activity of 20S proteasomes in RPMI 8226 cells (Homo sapiens, UniProt P28074); experiment: Chymotrypsin-like activity of 20S proteasomes in lysates of treated RPMI 8226 cells; format: cell-based
# T4 construct: added to 2.5×10^5/ml RMPI 8226 cells; endogenous in cells; host or cells: RPMI 8226 (ATCC CCL-155)
# T4 sequence (P28074 60-263): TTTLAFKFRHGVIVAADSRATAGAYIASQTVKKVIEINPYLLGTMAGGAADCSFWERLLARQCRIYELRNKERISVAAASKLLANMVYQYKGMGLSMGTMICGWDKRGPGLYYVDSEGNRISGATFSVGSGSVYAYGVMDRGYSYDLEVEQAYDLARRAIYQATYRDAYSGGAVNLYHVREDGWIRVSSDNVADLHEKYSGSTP
# Experimental: RPMI 8226 (ATCC, CCL-155), the human multiple myeloma cell line, was cultured in RPMI 1640 medium supplemented with 2 mM L-glutamine, 100 units/ml penicillin, 100 μg/ml streptomycin, 1 mM sodium pyruvate and 10% heat inactivated fetal bovine serum at 37° C., 5% CO2 and 95% humidified air. […] DMSO was used as the vehicle control at a final concentration of 0.1%. Following 1 hr incubation of RMPI 8226 cells with the compounds, the cells were pelleted by centrifugation at 2,000 rpm for 10 sec at room temperature and washed 3× with ice-cold 1× Dulbecco's Phosphate-Buffered Saline (DPBS, Mediatech, Herndon, Va.). DPBS washed cells were lysed on ice for 15 min in lysis buffer (20 mM HEPES, 0.5 mM EDTA, 0.05% Triton X-100, pH 7.3) supplemented with protease inhibitor cocktail (Roche Diagnostics, Indianapolis, Ind.). Cell debris was pelleted by centrifugation at 14,000 rpm for 10 min, 4° C. and supernatants (=cell lysates) were transferred to a new tube. Protein concentration was determined by the BCA protein assay kit (Pierce Biotechnology, Rockford, Ill.). […] The released coumarin (AMC) was measured fluorometrically by using λex=390 nm and λem=460 nm. The assay was performed in a microtiter plate (Corning 3904) and followed kinetically with measurements every five minutes for 2 hr. The total amount of protein used for each assay was 20 μg. The final concentration of Suc-LLVY-AMC and DMSO was 20 μM and 0.2%, respectively.
# [18] = target: T5, chymotrypsin-like activity of 20S proteasomes in PC-3 cells (Homo sapiens, UniProt P28074); experiment: Chymotrypsin-like activity of 20S proteasomes in lysates of treated PC-3 cells; format: cell-based; settings: for % inhibition of the chymotrypsin-like activity of 20S proteasomes in PC-3 cell lysates: 1 hr incubation
# T5 construct: endogenous in cells; host or cells: PC-3 (ATCC CRL-1435)
# Experimental: PC-3 (ATCC, CRL-1435), the human prostate cancer cell line, was cultured in F12K medium supplemented with 2 mM L-glutamine, 100 units/ml penicillin, 100 μg/ml streptomycin and 10% heat inactivated fetal bovine serum at 37° C., 5% CO2 and 95% humidified air. […] DMSO was used as the vehicle control at a final concentration of 0.1%. Following 1 hr incubation of PC-3 cells with the compounds, the cells were washed 3× with ice-cold 1× Dulbecco's Phosphate-Buffered Saline (DPBS, Mediatech, Herndon, Va.). […] Cell debris was pelleted by centrifugation at 14,000 rpm for 10 min, 4° C. and supernatants (=cell lysates) were transferred to a new tube. Protein concentration was determined by the BCA protein assay kit (Pierce Biotechnology, Rockford, Ill.). […] The released coumarin (AMC) was measured fluorometrically by using λex=390 nm and λem=460 nm. The assay was performed in a microtiter plate (Corning 3904) and followed kinetically with measurements every five minutes for 2 hr. The total amount of protein used for each assay was 20 μg. The final concentration of Suc-LLVY-AMC and DMSO was 20 μM and 0.2%, respectively. Results are presented as the percent inhibition of the 20S proteasome chymotrypsin-like activity relative to the DMSO control.
# [19] = RPMI-8226, read-out: % inhibition of the chymotrypsin-like activity of 20S proteasomes in RPMI 8226 cell lysates
# [20] = PC-3, read-out: % inhibition of the chymotrypsin-like activity of 20S proteasomes in PC-3 cell lysates
smiles,measurement,setting,value
"C[C@@]12OC(=O)[C@]1([C@@H](O)[C@H]1CCCC3OC31)NC(=O)[C@@H]2CCCl (single isomer, unassigned) [Formula II-5B]",EC50,[1],45 nM
same,"cytotoxicity against OVCAR-3, in words",[2],cytotoxic
same,"effect on luciferase activity upon TNF-α stimulation, in words",[3]; pretreatment of NF-κB/Luc 293 cells,dose-dependent decrease
same,EC50,"[3]; read-out: EC50, NF-κB-mediated luciferase reporter gene assay, Table 5, values in nM, 1 hr pretreatment, TNF-α 6 hr",279 nM
same,EC50,"[4]; Table 1, 48 hours drug exposure, mean ± SD where n≥3, read-out: EC50 against PC-3",1330 nM
same,"cytotoxicity against PC-3, in words",[4]; from EC50 values,cytotoxic
same,"cytotoxicity against U266, in words",[5]; from EC50 values,cytotoxic
same,EC50,"[5]; read-out: EC50 against U266, Table 1",111 nM
same,EC50,"[5]; read-out: U266 EC50, Table 2",118 nM and 111 nM
same,"cytotoxicity against RPMI 8226, in words",[6]; from EC50 values,cytotoxic
same,EC50,"[6]; read-out: EC50 against RPMI 8226, Table 1",328 nM
same,EC50,"[6]; read-out: RPMI 8226 EC50, Table 2, mean ± SD where n≥3",326 nM and 328 nM
same,"cytotoxicity against MDA-MB-231, in words",[7]; from EC50 values,cytotoxic
same,EC50,"[7]; read-out: EC50 against MDA-MB-231, Table 1, 48 hours drug exposure, mean ± SD where n≥3",957 nM
same,"cytotoxicity against HT-29, in words",[8]; from EC50 values,cytotoxic
same,EC50,"[8]; read-out: EC50 against HT-29, Table 1, 48 hours drug exposure, mean ± SD where n≥3",1210 nM
same,"cytotoxicity against NCI-H292, in words",[9]; from EC50 values,cytotoxic
same,EC50,"[9]; read-out: EC50 against NCI-H292, Table 1, 48 hours drug exposure, mean ± SD where n≥3",1250 nM
same,EC50,[10],85 nM
same,"inhibition of the trypsin-like activity of the 20S proteasome, in words",[11],able to inhibit
same,EC50,"[12]; EC50 Caspase-like, Table 6, values in μM",3.8 µM and 2.9 µM
same,EC50,"[12]; EC50 values, caspase-like activity, range in mixed units, summary of Table 6, range from nM to μM",0.956 to 8.7 µM
same,"cytotoxicity against B16-F10, in words",[13]; from EC50 values,cytotoxic
same,EC50,"[13]; read-out: EC50 against B16-F10, Table 1, 48 hours drug exposure, mean ± SD where n≥3",1140 nM
C[C@@]12OC(=O)[C@]1([C@@H](O)[C@@H]1C=CCCC1)NC(=O)[C@@H]2CCCl [Formula II-16],EC50,"[3]; Homo sapiens, HEK293, Table 12, read-out: NF-κB EC50",11 ± 3 nM
same,"cytotoxicity against RPMI 8226 in media containing 1% or 10% FBS, in words",[14]; 1% or 10% FBS,cytotoxic
same,EC50,"[14]; RPMI-8226, read-out: 1% FBS, EC50, RPMI 8226, media containing 1% FBS, single experiments",6.2 nM
same,EC50,"[14]; RPMI-8226, read-out: 10% FBS, EC50, RPMI 8226, media containing 10% FBS, single experiments",12 nM
same,EC50,"[14]; RPMI-8226, read-out: Mean 10% FBS, EC50, RPMI 8226, media containing 10% FBS, mean",11 nM
same,"cytotoxicity against HT-29 in media containing 1% or 10% FBS, in words",[15]; 1% or 10% FBS,cytotoxic
same,EC50,[15]; media containing 1% FBS,16 ± 5 nM
same,EC50,[15]; media containing 10% FBS,23 ± 10 nM
same,"cytotoxicity against B16-F10 in media containing 1% or 10% FBS, in words",[16]; 1% or 10% FBS,cytotoxic
same,EC50,"[16]; Mus musculus, B16-F10, read-out: B16-F10, EC50 (nM) mean ± SD, media containing 1% FBS",18 ± 9 nM
same,% inhibition of the chymotrypsin-like activity of 20S proteasomes in RPMI 8226 cell lysates,"[17]; 100 nM, 1 hr incubation, mean ± SD, n = 3, 0.1 µM",completely inhibit
same,inhibition at 0.001 µM,[17]; [19],30 ± 7%
same,inhibition at 0.005 µM,[17]; [19],85 ± 7%
same,inhibition at 0.01 µM,[17]; [19],94 ± 3%
same,inhibition at 0.05 µM,[17]; [19],97%
same,inhibition at 0.1 µM,[17]; [19],98 ± 1%
same,% inhibition of the chymotrypsin-like activity of 20S proteasomes in PC-3 cell lysates,[18]; 5 nM,69%
same,% inhibition of the chymotrypsin-like activity of 20S proteasomes in PC-3 cell lysates,"[18]; 50 nM, 0.05 µM",completely inhibit
same,inhibition at 0.005 µM,[18]; [20],69%
same,inhibition at 0.05 µM,[18]; [20],98%
